Experimental data as given in the NIST ThermoML archive (doi:10.1016/j.jct.2012.12.010).
± gives the expanded uncertainty stated by the source.

Assay: mn = molality of the nth substance listed, in mol/kg
Settings: 101 kPa, Liquid; for speed of sound: Linear variable-path acoustic interferometer; for mass density: Pycnometric method

SMILES: N=C(N)NCCC[C@H](N)C(=O)O [L-arginine] + O
- speed of sound (275.15 K, m1 = 0.0381): 1416.9 ± 2.8 m/s
- speed of sound (275.15 K, m1 = 0.0808): 1422.5 ± 2.8 m/s
- speed of sound (275.15 K, m1 = 0.1223): 1427.9 ± 2.7 m/s
- speed of sound (275.15 K, m1 = 0.1659): 1433.5 ± 2.7 m/s
- speed of sound (275.15 K, m1 = 0.2092): 1439.2 ± 2.7 m/s
- speed of sound (275.15 K, m1 = 0.2503): 1444.5 ± 2.7 m/s
- speed of sound (275.15 K, m1 = 0.2909): 1449.8 ± 2.7 m/s
- speed of sound (275.15 K, m1 = 0.3371): 1455.8 ± 2.7 m/s
- speed of sound (275.15 K, m1 = 0.3742): 1460.6 ± 2.7 m/s
- speed of sound (275.15 K, m1 = 0.4153): 1465.9 ± 2.7 m/s
- speed of sound (275.15 K, m1 = 0.4529): 1470.8 ± 2.7 m/s
- speed of sound (275.15 K, m1 = 0.5067): 1477.8 ± 2.7 m/s
- mass density (275.15 K, m1 = 0.0381): 1002.25 ± 0.48 kg/m3
- mass density (275.15 K, m1 = 0.0808): 1004.4 ± 0.48 kg/m3
- mass density (275.15 K, m1 = 0.1223): 1006.6 ± 0.48 kg/m3
- mass density (275.15 K, m1 = 0.1659): 1008.86 ± 0.48 kg/m3
- mass density (275.15 K, m1 = 0.2092): 1010.74 ± 0.48 kg/m3
- mass density (275.15 K, m1 = 0.2503): 1012.81 ± 0.48 kg/m3
- mass density (275.15 K, m1 = 0.2909): 1014.82 ± 0.48 kg/m3
- mass density (275.15 K, m1 = 0.3371): 1017.05 ± 0.48 kg/m3
- mass density (275.15 K, m1 = 0.3742): 1018.75 ± 0.49 kg/m3
- mass density (275.15 K, m1 = 0.4153): 1020.74 ± 0.49 kg/m3
- mass density (275.15 K, m1 = 0.4529): 1022.49 ± 0.49 kg/m3
- mass density (275.15 K, m1 = 0.5067): 1024.97 ± 0.49 kg/m3
- speed of sound (279.15 K, m1 = 0.0381): 1434.5 ± 2.8 m/s
- speed of sound (279.15 K, m1 = 0.0808): 1439.6 ± 2.8 m/s
- speed of sound (279.15 K, m1 = 0.1225): 1444.5 ± 2.8 m/s
- speed of sound (279.15 K, m1 = 0.1847): 1451.9 ± 2.8 m/s
- speed of sound (279.15 K, m1 = 0.2092): 1454.8 ± 2.7 m/s
- speed of sound (279.15 K, m1 = 0.25): 1459.7 ± 2.7 m/s
- speed of sound (279.15 K, m1 = 0.2932): 1464.8 ± 2.7 m/s
- speed of sound (279.15 K, m1 = 0.3459): 1471.1 ± 2.7 m/s
- speed of sound (279.15 K, m1 = 0.3742): 1474.4 ± 2.7 m/s
- speed of sound (279.15 K, m1 = 0.4177): 1479.6 ± 2.7 m/s
- speed of sound (279.15 K, m1 = 0.4601): 1484.6 ± 2.7 m/s
- speed of sound (279.15 K, m1 = 0.5176): 1491.4 ± 2.7 m/s
- mass density (279.15 K, m1 = 0.0381): 1002.12 ± 0.47 kg/m3
- mass density (279.15 K, m1 = 0.0808): 1004.33 ± 0.47 kg/m3
- mass density (279.15 K, m1 = 0.1225): 1005.88 ± 0.47 kg/m3
- mass density (279.15 K, m1 = 0.1847): 1009.11 ± 0.47 kg/m3
- mass density (279.15 K, m1 = 0.2092): 1010.49 ± 0.47 kg/m3
- mass density (279.15 K, m1 = 0.25): 1012.51 ± 0.47 kg/m3
- mass density (279.15 K, m1 = 0.2932): 1014.5 ± 0.48 kg/m3
- mass density (279.15 K, m1 = 0.3459): 1017.1 ± 0.48 kg/m3
- mass density (279.15 K, m1 = 0.3742): 1018.39 ± 0.48 kg/m3
- mass density (279.15 K, m1 = 0.4177): 1020.39 ± 0.48 kg/m3
- mass density (279.15 K, m1 = 0.4601): 1022.35 ± 0.48 kg/m3
- mass density (279.15 K, m1 = 0.5176): 1025.01 ± 0.48 kg/m3
- speed of sound (283.15 K, m1 = 0.0379): 1451.4 ± 2.8 m/s
- speed of sound (283.15 K, m1 = 0.0806): 1456.3 ± 2.8 m/s
- speed of sound (283.15 K, m1 = 0.1228): 1461.2 ± 2.8 m/s
- speed of sound (283.15 K, m1 = 0.1755): 1467.2 ± 2.8 m/s
- speed of sound (283.15 K, m1 = 0.2052): 1470.7 ± 2.8 m/s
- speed of sound (283.15 K, m1 = 0.2496): 1475.8 ± 2.8 m/s
- speed of sound (283.15 K, m1 = 0.291): 1480.5 ± 2.8 m/s
- speed of sound (283.15 K, m1 = 0.3386): 1486 ± 2.8 m/s
- speed of sound (283.15 K, m1 = 0.3757): 1490.3 ± 2.8 m/s
- speed of sound (283.15 K, m1 = 0.416): 1495 ± 2.8 m/s
- speed of sound (283.15 K, m1 = 0.4566): 1499.6 ± 2.8 m/s
- speed of sound (283.15 K, m1 = 0.5031): 1505 ± 2.8 m/s
- mass density (283.15 K, m1 = 0.0379): 1001.53 ± 0.46 kg/m3
- mass density (283.15 K, m1 = 0.0806): 1003.83 ± 0.46 kg/m3
- mass density (283.15 K, m1 = 0.1228): 1005.96 ± 0.46 kg/m3
- mass density (283.15 K, m1 = 0.1755): 1008.59 ± 0.46 kg/m3
- mass density (283.15 K, m1 = 0.2052): 1009.81 ± 0.47 kg/m3
- mass density (283.15 K, m1 = 0.2496): 1012.14 ± 0.47 kg/m3
- mass density (283.15 K, m1 = 0.291): 1014.12 ± 0.47 kg/m3
- mass density (283.15 K, m1 = 0.3386): 1016.31 ± 0.47 kg/m3
- mass density (283.15 K, m1 = 0.3757): 1017.99 ± 0.47 kg/m3
- mass density (283.15 K, m1 = 0.416): 1019.92 ± 0.47 kg/m3
- mass density (283.15 K, m1 = 0.4566): 1021.75 ± 0.47 kg/m3
- mass density (283.15 K, m1 = 0.5031): 1023.84 ± 0.47 kg/m3
